ChEMBL document CHEMBL5214968, “Recent Scaffold Hopping Applications in Central Nervous System Drug Discovery” (J Med Chem, 2022)

Key:
[1] = molecular target: T1, Cyclin-G-associated kinase (Homo sapiens, UniProt O14976); assay: Binding affinity to GAK (unknown origin) by KINOMEscan analysis
T1 sequence (O14976 whole entry): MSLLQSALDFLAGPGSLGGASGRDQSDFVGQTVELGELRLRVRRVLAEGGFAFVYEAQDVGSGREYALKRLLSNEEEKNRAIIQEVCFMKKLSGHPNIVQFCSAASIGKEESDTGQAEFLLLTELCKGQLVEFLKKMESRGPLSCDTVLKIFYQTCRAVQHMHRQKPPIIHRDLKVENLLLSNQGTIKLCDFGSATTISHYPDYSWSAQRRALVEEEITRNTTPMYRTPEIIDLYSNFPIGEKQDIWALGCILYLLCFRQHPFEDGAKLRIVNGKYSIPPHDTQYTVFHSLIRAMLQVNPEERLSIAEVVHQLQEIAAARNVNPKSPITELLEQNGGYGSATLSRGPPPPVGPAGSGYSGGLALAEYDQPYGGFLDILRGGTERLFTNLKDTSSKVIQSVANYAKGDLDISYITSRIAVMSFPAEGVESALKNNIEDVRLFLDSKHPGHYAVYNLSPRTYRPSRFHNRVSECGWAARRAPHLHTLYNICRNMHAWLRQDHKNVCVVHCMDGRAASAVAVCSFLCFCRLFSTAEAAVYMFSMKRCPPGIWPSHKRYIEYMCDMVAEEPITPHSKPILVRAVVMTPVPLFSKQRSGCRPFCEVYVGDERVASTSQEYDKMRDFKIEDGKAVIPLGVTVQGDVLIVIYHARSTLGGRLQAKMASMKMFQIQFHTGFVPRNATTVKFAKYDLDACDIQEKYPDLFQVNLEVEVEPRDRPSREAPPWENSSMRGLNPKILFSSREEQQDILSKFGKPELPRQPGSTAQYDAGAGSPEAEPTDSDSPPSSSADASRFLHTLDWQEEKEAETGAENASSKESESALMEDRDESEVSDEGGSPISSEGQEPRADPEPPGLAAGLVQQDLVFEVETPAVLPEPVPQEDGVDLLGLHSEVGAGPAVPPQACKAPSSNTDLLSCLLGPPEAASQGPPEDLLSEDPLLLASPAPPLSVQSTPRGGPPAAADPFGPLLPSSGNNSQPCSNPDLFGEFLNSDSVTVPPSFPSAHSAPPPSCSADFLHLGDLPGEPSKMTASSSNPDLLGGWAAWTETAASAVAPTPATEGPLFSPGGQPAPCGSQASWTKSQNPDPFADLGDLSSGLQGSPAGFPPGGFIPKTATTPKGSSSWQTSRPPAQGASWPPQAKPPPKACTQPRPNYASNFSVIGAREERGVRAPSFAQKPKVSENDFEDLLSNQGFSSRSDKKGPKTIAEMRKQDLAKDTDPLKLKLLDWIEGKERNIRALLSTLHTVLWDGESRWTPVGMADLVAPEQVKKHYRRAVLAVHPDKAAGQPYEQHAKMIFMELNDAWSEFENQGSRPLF

Cannabinoid receptor 2 = Cannabinoid receptor 2 (Homo sapiens, UniProt P34972); assay: Agonist activity at human CB2 receptor expressed in mouse AtT20 cells by FLIPR assay; format: functional, cell-based
Chain of Cannabinoid receptor 2 (P34972 whole entry): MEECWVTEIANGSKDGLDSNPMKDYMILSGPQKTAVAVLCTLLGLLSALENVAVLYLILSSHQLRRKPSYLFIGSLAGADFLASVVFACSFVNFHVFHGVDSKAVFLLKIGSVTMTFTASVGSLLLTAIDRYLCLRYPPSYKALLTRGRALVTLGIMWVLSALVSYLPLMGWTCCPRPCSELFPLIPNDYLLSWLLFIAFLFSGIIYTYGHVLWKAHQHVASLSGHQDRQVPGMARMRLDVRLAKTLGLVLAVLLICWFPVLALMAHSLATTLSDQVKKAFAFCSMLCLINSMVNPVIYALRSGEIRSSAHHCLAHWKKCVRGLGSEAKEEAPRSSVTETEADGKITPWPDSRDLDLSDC

Cannabinoid receptor 1 = Cannabinoid receptor 1 (Homo sapiens, UniProt P21554); assay: Agonist activity at human CB1 receptor expressed in mouse AtT20 cells by FLIPR assay; format: functional, cell-based
Chain of Cannabinoid receptor 1 (P21554 whole entry): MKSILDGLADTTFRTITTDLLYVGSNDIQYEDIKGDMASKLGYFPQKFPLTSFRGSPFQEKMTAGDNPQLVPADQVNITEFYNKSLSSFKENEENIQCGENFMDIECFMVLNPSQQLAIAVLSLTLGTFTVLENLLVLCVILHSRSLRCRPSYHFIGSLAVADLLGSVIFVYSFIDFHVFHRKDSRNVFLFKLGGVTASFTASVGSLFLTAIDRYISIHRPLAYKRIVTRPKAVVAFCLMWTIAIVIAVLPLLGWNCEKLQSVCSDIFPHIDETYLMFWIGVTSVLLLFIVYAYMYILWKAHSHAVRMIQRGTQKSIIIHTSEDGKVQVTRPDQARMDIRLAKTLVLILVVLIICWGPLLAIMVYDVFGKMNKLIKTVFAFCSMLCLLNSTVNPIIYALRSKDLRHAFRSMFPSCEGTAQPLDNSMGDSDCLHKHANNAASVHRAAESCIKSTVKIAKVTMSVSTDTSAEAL

[2] = molecular target: Microtubule-associated protein tau (Homo sapiens) (UniProt P10636); assay: Inhibition of heparin-induced tau protein (unknown origin) aggregation at 100 uM incubated for 3 days by Thioflavin T fluorescence assay; conditions: time 3.0 day
Chain of Microtubule-associated protein tau (Homo sapiens) (P10636 whole entry): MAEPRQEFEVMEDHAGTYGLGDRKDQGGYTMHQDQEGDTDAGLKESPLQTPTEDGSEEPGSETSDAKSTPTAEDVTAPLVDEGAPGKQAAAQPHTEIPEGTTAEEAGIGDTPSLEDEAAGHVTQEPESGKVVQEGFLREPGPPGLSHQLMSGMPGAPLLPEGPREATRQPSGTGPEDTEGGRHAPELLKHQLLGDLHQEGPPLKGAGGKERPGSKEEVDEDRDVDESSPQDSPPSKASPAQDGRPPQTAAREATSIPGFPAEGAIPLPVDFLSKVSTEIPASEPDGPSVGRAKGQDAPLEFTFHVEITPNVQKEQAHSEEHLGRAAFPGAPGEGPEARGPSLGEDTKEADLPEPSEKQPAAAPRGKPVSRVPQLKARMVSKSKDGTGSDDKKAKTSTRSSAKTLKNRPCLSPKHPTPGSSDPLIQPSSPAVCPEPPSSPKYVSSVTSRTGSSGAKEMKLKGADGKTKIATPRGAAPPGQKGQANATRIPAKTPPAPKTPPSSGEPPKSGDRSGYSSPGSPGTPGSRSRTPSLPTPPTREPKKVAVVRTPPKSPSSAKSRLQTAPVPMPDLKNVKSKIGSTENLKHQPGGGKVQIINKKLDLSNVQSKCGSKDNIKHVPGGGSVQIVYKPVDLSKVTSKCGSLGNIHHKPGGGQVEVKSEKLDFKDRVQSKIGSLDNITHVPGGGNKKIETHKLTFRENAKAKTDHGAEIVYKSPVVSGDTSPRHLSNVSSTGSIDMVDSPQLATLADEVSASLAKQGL

Mu-type opioid receptor = Mu-type opioid receptor (Homo sapiens, UniProt P35372); assay: Displacement of [3H]DAMGO from human cloned mu-opioid receptor by radioligand binding assay
Chain of Mu-type opioid receptor (P35372 whole entry): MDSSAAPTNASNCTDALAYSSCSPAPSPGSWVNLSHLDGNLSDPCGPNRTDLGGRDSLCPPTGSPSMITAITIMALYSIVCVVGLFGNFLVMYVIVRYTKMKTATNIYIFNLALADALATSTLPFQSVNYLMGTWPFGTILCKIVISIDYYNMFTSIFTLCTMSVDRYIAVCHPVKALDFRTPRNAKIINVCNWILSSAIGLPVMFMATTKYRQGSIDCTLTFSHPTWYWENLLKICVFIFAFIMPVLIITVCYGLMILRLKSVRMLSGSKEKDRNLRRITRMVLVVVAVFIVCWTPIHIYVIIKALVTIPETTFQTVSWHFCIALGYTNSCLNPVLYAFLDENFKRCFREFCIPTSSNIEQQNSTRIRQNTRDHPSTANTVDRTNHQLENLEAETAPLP

| SMILES | EC50 (Cannabinoid receptor 2) [µM] | EC50 (Cannabinoid receptor 1) [µM] | inhibition [2] [%] | other results |
| --- | --- | --- | --- | --- |
| COc1ccc(-c2cnc3c(c2)nnn3-c2ccccc2)cc1OC | – | – | – | Kd [1]: > 30 µM |
| CC(C)(NC(=O)c1nn(CCCCCF)c2ccccc12)c1ccccc1 | 0.0112 | 0.00043 | – | – |
| CC(C)(NC(=O)c1cn(CCCCCF)c2ncccc12)c1ccccc1 | 0.0113 | 0.0047 | – | – |
| CC(C)(NC(=O)c1cn(CCCCCF)c2ccccc12)c1ccccc1 | 0.0396 | 0.0028 | – | – |
| C=CCO/N=C(\C(=O)NC1CC1)c1cscc1C(=O)Nc1ccc(F)cc1 | – | – | 33 | – |
| O=C(NCCc1ccccc1)[C@H]1CCN(C(=O)Cc2ccc(O)cc2)[C@@H]1C(=O)NCCc1c[nH]c2ccccc12 | – | – | – | Ki (Mu-type opioid receptor): 0.82 µM |
| O=C(NC1CC1)/C(=N\O)c1cscc1C(=O)NC12CC3CC(CC(C3)C1)C2 | – | – | 30 | – |
| O=C(NC1CC1)c1nn(-c2ccc(F)cc2)c(=O)c2cscc12 | – | – | 51 | – |
